The test system of one experiment is All Yeasts. Briefly: Minimum fungicidal concentration, yeasts. The class given is cell-based. As to the method: Minimum fungicidal concentration (MFC): The minimum fungicidal concentrations of various agents were determined using the technique described by Canton et al. (Antimicrob Agents Chemother. 2004 8:2477-82). In that method, fungal conidia were collected following growth on potato dextrose agar (PDA) plates and were used to inoculate 96-well plates containing different concentrations of agents. Following incubation at 35° C. for 4 days (for dermatophytes) or 24 hours (for yeast), wells showing no visible growth were cultured to determine the MFC (defined as the lowest concentration of a given agent that kills>99.999% of fungal conidia or spores). The MFC value represents the level of the agent at which spores or conidia were killed.

Experiment [1] has as its system terbinafine-resistant T. rubrum. The experiment in a line: MIC against terbinafine-resistant isolates. The class given is cell-based, Trichophyton rubrum. As to the method: Minimum Inhibitory Concentration (MIC): Minimum inhibitory concentrations of synthetic and semisynthetic and natural products against dermatophytes were determined using a modification of the Clinical Laboratory Standards Institute (CLSI, formerly National Committee of Clinical Laboratory Standards, NCCLS) M38A standard method for dermatophytes, while MIC of these agents against Candida species were determined using the CLSI M27-A2 methodology. The method used to determine the MIC against bacteria was based on the CLSI document M7-A7.
For dermatophytes, serial dilutions of terbinafine, tolnaftate were prepared in a range of 0.004-2 μg/ml, while for miconazole concentrations ranged between 0.015-8 μg/ml. Finally, for essential oils, the concentrations tested were between 0.03-16 μg/ml. The only exception was tea tree oil where dilutions were prepared in a range of 0.0078-4 μg/ml. The MIC was read at 4 days post inoculation and defined as the lowest concentration of an agent to inhibit 80% of fungal growth as compared to the growth control (Table 2).

[2] abbreviates: Trichophyton rubrum, terbinafine-resistant T. rubrum, n = 11.

In brackets after ≈: the same amount, converted by molar mass.

For the molecule `Clc1ccc(COC(Cn2ccnc2)c2ccc(Cl)cc2Cl)c(Cl)c1` (stereo not drawn) [Miconazole, miconazole], in the experiment on All Yeasts, the MFC Range is 0.5 to 2 µg/mL.
As for `CN(C/C=C/C#CC(C)(C)C)Cc1cccc2ccccc12` [Terbinafine, terbinafine], the MIC worked out at 16 µg/mL (≈ 54.9 µM) in experiment [1] (Trichophyton rubrum, T. rubrum MRL 666); 16 µg/mL (≈ 54.9 µM) in experiment [1] (Trichophyton rubrum, T. rubrum MRL 670); 4 µg/mL (≈ 13.7 µM) in experiment [1] (Trichophyton rubrum, T. rubrum MRL 671); 4 µg/mL (≈ 13.7 µM) in experiment [1] (Trichophyton rubrum, T. rubrum MRL 1386); 4 µg/mL (≈ 13.7 µM) in experiment [1] (Trichophyton rubrum, T. rubrum MRL 1806); 4 µg/mL (≈ 13.7 µM) in experiment [1] (Trichophyton rubrum, T. rubrum MRL 1807). Besides, the MIC in experiment [1] (Trichophyton rubrum, T. rubrum MRL 1808) was found to be 16 µg/mL (≈ 54.9 µM); in experiment [1] (Trichophyton rubrum, T. rubrum MRL 1809), 16 µg/mL (≈ 54.9 µM); in experiment [1] (Trichophyton rubrum, T. rubrum MRL 1810), 4 µg/mL (≈ 13.7 µM); in experiment [1] (Trichophyton rubrum, T. rubrum MRL 2499), 4 µg/mL (≈ 13.7 µM); in experiment [1] (Trichophyton rubrum, T. rubrum MRL 2727), 2 µg/mL (≈ 6.86 µM). In experiment [1] (setting [2]), this molecule displayed an MIC50 of 4 µg/mL (≈ 13.7 µM). Further, in experiment [1] (setting [2]), the MIC90 was found to be 16 µg/mL (≈ 54.9 µM). Further, the “MIC Range” value in experiment [1] (terbinafine-resistant T. rubrum, n = 11) fell in the range of 2 to 16 µg/mL.

Source of the values: patent US20080220103A1, “METHOD FOR TREATING/CONTROLLING/KILLING FUNGI AND BACTERIA ON LIVING ANIMALS” (priority 2005, published 2008).
